Patent US6441049B2, “Method of treating neurodegenerative disorders via inhibition of amyloid beta peptide binding” (Ortho-McNeil Pharmaceutical, Inc., priority 1998, dated 2002)
Read-outs that look alike come from different tables or passages of the source.

Key:
Aβ aggregation = target: T1, Aβ aggregation (Homo sapiens, UniProt P05067); test: Aβ aggregation assay on Synthaloid plates with labelled Aβ1-40; assay type: biochemical
T1 construct: 100 nM of fluo-Aβ1-40 in 100 μl of each well of the 96-well Synthaloid plate; purchased Amersham Pharmacia Biotech (125I-Aβ1-40); Advanced Bioconcepts (fluo-Aβ1-40)
T1 sequence (P05067 672-711 limits assumed): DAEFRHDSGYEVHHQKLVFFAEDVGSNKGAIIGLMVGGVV
Experimental: Aβs are known to form aggregates leading to the formation of amyloid plaques that are characteristic of Alzheimer's disease. […] We have validated this aggregation assay using both ^125I-Aβ1-40 and fluo-Aβ1-40 in a buffer containing 50 mM HEPES, pH 7.4, 0.1% BSA, 10% FCS and protease inhibitors. About 500 pM of ^125I-Aβ1-40 or 100 nM of fluo-Aβ1-40 in 100 μl of each well of the 96-well Synthaloid plate was allowed to incubate for 2.5 hr at room temperature in the presence or absence of inhibitors. At the end of the incubation, unbound protein in the wells was removed by three washes using the above buffer. The amount of bound protein which represented Aβ aggregation was measured either by scintillation counting or fluorescence measurements.

[1] = target: 206-216 stretch of the human α7 nAChR (Homo sapiens, UniProt P36544); details: 125I-β-amyloid1-40 50 pM; inhibitors 1 uM to 10 uM
Experimental: A 2-5 ug quantity of the 11 amino acid peptide comprised of the 206-216 stretch of the α7 nAChR (N-Ac, C(O)NH2) are added to a 96-well microtiter plate in 50 mL 10 mM HEPES, pH 7.4, or any buffer 50 ul. ^125I-β-amyloid1-40 (2000 Ci/mmol, 50 pM) was added to the wells in the presence and absence of inhibitors (1 uM to 10 uM) dissolved in 1 uL of 30% or 100% DMSO. Unbound ligands were removed and bound radioactivity was measured using a Microbeta liquid scintillation counter.

[2] = tested on: acetylcholine release from guinea pig hippocampus synaptosomes; test: K+-evoked 3H-acetylcholine release from synaptosomes, effect of Aβs; assay type: cell-based; details: for IC50: read-out: ACh Release (IC50)
Experimental: Synaptosomes from guinea pig hippocampus were incubated with 0.1 μM ^3H-choline and then subjected to repeated washes to remove unincorporated ^3H-choline. The synaptosomes were treated with 65 mM K^+ for 30 seconds to elicit 3H-acetylcholine release.

CCCN(CCCc1ccccc1)C1Cc2c(OC)ccc(OC)c2CC1C (racemic) [Compound 19]
% Inh Agg. (conc μM) (Aβ aggregation; 5 μM): 30 (5) %

CCCN(CCCc1ccccc1)C1Cc2c(O)ccc(O)c2CC1C (racemic) [Compound 20]
% Inh Agg. (conc μM) (Aβ aggregation; 5 μM): 39 (5) %

CCCN(CC1CCCCC1)C1Cc2c(OC)ccc(OC)c2CC1C (racemic) [Compound 21]
% Inh Agg. (conc μM) (Aβ aggregation; 5 μM): 20 (5) %

CCCN(CC1CCCCC1)C1Cc2c(O)ccc(O)c2CC1C (racemic) [Compound 22]
% Inh Agg. (conc μM) (Aβ aggregation; 50 μM): 38 (50) %

CCCN(Cc1ccccc1)C1Cc2c(OC)ccc(OC)c2CC1C (racemic) [Compound 25]
% α7 nAChR 206-216 Binding [1]: 48%

CCCN(Cc1cccs1)C1Cc2c(OC)ccc(OC)c2CC1C (racemic) [Compound 29]
% Inh Agg. (conc μM) (Aβ aggregation; 10 μM): 12 (10) %

CCCN(Cc1cccs1)C1Cc2c(O)ccc(O)c2CC1C (racemic) [Compound 30]
% Inh Agg. (conc μM) (Aβ aggregation; 5 μM): 38 (5) %

C#CCN(CCC)C1Cc2c(OC)ccc(OC)c2CC1C (racemic) [Compound 31, 5,8-Dimethoxy-cis and trans-2-(N-propyl-N-propargyl)amino-3-methyl-1,2,3,4-tetrahydronaphthalene]
% Inh Agg. (conc μM) (Aβ aggregation; 10 μM): 34 (10) %

C#CCN(CCC)C1Cc2c(O)ccc(O)c2CC1C (racemic) [Compound 32]
% Inh Agg. (conc μM) (Aβ aggregation; 10 μM): 69 (10) %

C#CCN(CCC)C1Cc2c(O)ccc(O)c2CC1C (racemic) [Compound 34]
% Inh Agg. (conc μM) (Aβ aggregation; 10 μM): 69 (10) %

CCCN(Cc1ccc(I)cc1)C1Cc2c(OC)ccc(OC)c2CC1C (racemic) [Compound 35]
% Inh Agg. (conc μM) (Aβ aggregation; 10 μM): 38 (10) %

CCCN(Cc1ccc(I)cc1)C1Cc2c(O)ccc(O)c2CC1C (racemic) [Compound 36]
% Inh Agg. (conc μM) (Aβ aggregation; 10 μM): <30 (10) %

CCCCOc1ccc(CN(CCC)C2Cc3c(OC)ccc(OC)c3CC2C)cc1 (racemic) [Compound 37]
% Inh Agg. (conc μM) (Aβ aggregation; 10 μM): <30 (10) %

CCCN(Cc1ccc(O)cc1)C1Cc2c(O)ccc(O)c2CC1C (racemic) [Compound 38]
% Inh Agg. (conc μM) (Aβ aggregation; 10 μM): <30 (10) %

CCCN(Cc1ccccc1Cl)C1Cc2c(OC)ccc(OC)c2CC1C (racemic) [Compound 39]
% Inh Agg. (conc μM) (Aβ aggregation; 10 μM): 85 (10) %

CCCN(Cc1ccccc1Cl)C1Cc2c(O)ccc(O)c2CC1C (racemic) [Compound 40]
% Inh Agg. (conc μM) (Aβ aggregation; 10 μM): 75 (10) %

CCCN(Cc1ccc(C)cc1)C1Cc2c(O)ccc(O)c2CC1C (racemic) [Compound 42]
% Inh Agg. (conc μM) (Aβ aggregation; 10 μM): 60 (10) %

COc1ccc(OC)c2c1C[C@@H](N1CCOCC1)[C@@H](C)C2 (relative stereo) [Compound 23, 5,8-Dimethoxy-cis-2-(1-morpholinyl)-3-methyl-1,2,3,4-tetrahydronaphthalene]
% α7 nAChR 206-216 Binding [1]: 54%

CCCN(CCC)C1Cc2c(OC)ccc(OC)c2CC1C (single isomer, unassigned) [Compound 17]
% ACh Release at 10 μM [2]: 63%
IC50 [2]: 1000 nM
% Inh Agg. (conc μM) (Aβ aggregation; 10 μM): >90 (10) %

CCCN(CCC)C1Cc2c(OC)ccc(OC)c2CC1C (single isomer, unassigned) [Compound 18]
% ACh Release at 10 μM [2]: 70%
IC50 [2]: 10000 nM
% Inh Agg. (conc μM) (Aβ aggregation; 10 μM): 50-90 (10) %

CCCNC1Cc2c(OC)ccc(OC)c2CC1C (stereo not drawn) [Compound 7, 5,8-Dimethoxy-2-N-propylamino-3-methyl-1,2,3,4-tetrahydronaphthalene]
inhibition at 100 µM (Aβ aggregation; 100 μM, read-out: % Inh Agg. (conc μM)): 50%

CCCN(CCC)C1Cc2c(OC)ccc(OC)c2CC1C (stereo not drawn) [Compound 8, 5,8-Dimethoxy-trans-2-di(N-propylamino)-3-methyl-1,2,3,4-tetrahydronaphthalene]
IC50 ([2]; Cavia porcellus): 700 nM
inhibition at 10 µM (Aβ aggregation; 10 μM, read-out: % Inh Agg. (conc μM)): 50 to 90%

CC1Cc2c(O)ccc(O)c2CC1N1CCOCC1 (stereo not drawn) [Compound 24, 5,8-Dihydroxy-cis-2-(1-morpholinyl)-3-methyl-1,2,3,4-tetrahydronaphthalene]
% α7 nAChR 206-216 Binding [1]: 43%

CCCN(CCC)C1Cc2c(OC)ccc(O)c2CC1C (stereo not drawn) [Compound 45, 5-Hydroxy-8-methoxy-trans-2-di(N-propylamino)-3-methyl-1,2,3,4-tetrahydronaphthalene]
% ACh Release at 10 μM [2]: 78%
inhibition at 78 µM (Aβ aggregation; 78 μM as printed, read-out: % Inh Agg. (conc μM)): 30 to 50%
